# According to patent US20250215006A1, “TRICYCLIC COMPOUNDS AS INHIBITORS OF WRN” (Incyte Corporation, priority 2023, published 2025):
# Key:
# [1] = target: T1, WRN (Homo sapiens, UniProt Q14191); test: WRN ATPase activity assay (ADP-Glo); assay type: biochemical; details: 1-hr pre-incubation with enzyme; 100 μM ATP, 25 nM forked dsDNA, 1 nM WRN; geometric mean of at least 2 replicates
# T1 construct: A His-tagged construct of WRN (AA S2-S1235) was produced and used for the ATPase assay; His; made in house; host or cells: Sf9 insect cells (baculovirus, pFastBac1)
# Method: Compounds of the Examples were tested for WRN ATPase activity. WRN ATPase activity catalyzes ATP hydrolysis to produce ADP and phosphate. DNA encoding the target protein, 6×HIS-TEV-WRN-517-945, was produced, cloned and transfected as detailed in Example D. The amount of ADP produced was measured using ADP-Glo™ Kinase Assay kit from Promega Corporation in a Greiner white regular volume 384 wells assay plate (Greiner #781075). Data was normalized to a standard curve generated using various ADP concentrations and the corresponding luminescent signal intensities at each concentration. The assay conditions were optimized for enzyme concentration (WRN), substrate concentrations (ATP & dsDNA), and the linearity of the ATPase reaction, in the following assay buffer: 50 mM Tris-HCl, pH-7.5, 2 mM MgCl2, 50 mM NaCl, 1 mM EGTA, 0.01% P-20, 0.05% BSA, and 2 mM DTT prepared with nuclease free water.
# A serial dilution (1:3 scheme) of the compounds were prepared in neat DMSO, with 100 nL of the compounds dispensed in the 384 wells assay plate. An 1-hr pre-incubation of the compounds with enzyme was included. A His-tagged construct of WRN (AA S2-S1235) was produced and used for the ATPase assay. Maximum inhibition control wells were set up with the addition of only assay buffer, and no inhibition control wells were set up with neat DMSO without test compounds. The reaction was initiated by addition of 5 μL substrate mix (200 μM ultrapure ATP, and 50 nM dsDNA prepared in assay buffer) and incubated at 25° C. for 35 min. A forked dsDNA oligomer substrate was prepared by annealing equal amounts of oligo GPat-1 ([BHQ2][…]) and oligo GPat-2 ([…][TAM]) and was used as dsDNA substrate for WRN ATPase assay. A typical ATPase reaction consists of 25 nM forked dsDNA, 100 μM ATP, and 1 nM WRN prepared in assay buffer. The WRN ATPase reaction was stopped by the addition of 5 μL of ADP-Glo Reagent from ADP-Glo™ Kinase Assay kit and incubated for 40 min to deplete the unreacted ATP. Afterwards, 5 μL of Kinase Detection Reagent from the ADP-Glo™ Kinase Assay kit was added and incubated for 1 hr for the development of luminescence signal.
# Luminesce signals were measured on BMG PHERAstar FSX using luminescence protocol. Data analysis was carried out using Genedata software following % of control normalization. Fitting parameters include dose response IC50, Hill slope (n), maximum inhibition (S∞), and minimum inhibition (S0). The reported IC50 values for compounds in this invention are the geometric means of at least 2 independent replicates.
# [2] = target: T1, WRN; test: WRN Helicase activity assay (fluorescence DNA unwinding); assay type: biochemical; details: 1-hr pre-incubation with enzyme; 100 μM ATP, 25 nM forked dsDNA, 1 nM WRN; geometric mean of at least 2 replicates
# Method: Compounds of the examples were tested for WRN helicase activity. DNA encoding the target protein, 6×HIS-TEV-WRN-517-945, was produced, cloned and transfected as detailed in Example D. To determine the inhibitory properties of the compounds, a 384 wells plate-based Helicase assay was set up to measure the extent of DNA unwinding (Helicase) activity of WRN. The WRN Helicase assay was designed to measure increase in fluorescence signal using a fluorescence based, donor-quencher paired forked dsDNA oligomer substrate (custom synthesis from Sigma-Aldrich) prepared by annealing equal amounts of oligo GPat-1 ([BHQ2][…]) and oligo GPat-2 ([…][TAM]). Continuous measurement of fluorescent signal was used to optimize the buffer conditions, concentration of enzyme (WRN), concentration of substrates (ATP & dsDNA), and the linearity of the Helicase reaction. All solutions were prepared in the following assay buffer: 50 mM Tris-HCl, pH-7.5, 2 mM MgCl2, 50 mM NaCl, 1 mM EGTA, 0.01% P-20, 0.05% BSA, and 2 mM DTT prepared with nuclease free water.
# A serial dilution (1:3 scheme) of the compounds was prepared in neat DMSO and 100 nL of the compounds was dispensed in the Greiner black low volume (Greiner #784076) 384 wells assay plate. An 1-hr pre-incubation of the compounds with enzyme was included. A His-tagged construct of WRN (AA S2-S1235) was produced and used for the ATPase assay. Maximum inhibition control wells were set up with the addition of only assay buffer, and no inhibition control wells were set up with neat DMSO without test compounds. The reaction was initiated by addition of 5 μL substrate mix (200 μM ultrapure ATP, and 50 nM dsDNA prepared in assay buffer) and incubated at 25° C. for 35 min. A typical Helicase reaction consists of 25 nM forked dsDNA, 100 μM ATP, and 1 nM WRN prepared in assay buffer. The WRN Helicase reaction was quenched by the addition of 5 μL ‘STOP’ solution containing 100 mM EDTA (final EDTA concentration 33.33 mM) prepared in assay buffer. The plates were read on BMG PHERAstar FSX using 540/590 module to measure an increase of fluorescence. Data analysis was carried out using the Genedata software following % of control normalization. Fitting parameters include dose response IC50, Hill slope (n), maximum inhibition (S∞), and minimum inhibition (S0). The reported IC50 values for compounds in this invention are the geometric means of at least 2 independent replicates.
# T1 sequence (Q14191 2-1235): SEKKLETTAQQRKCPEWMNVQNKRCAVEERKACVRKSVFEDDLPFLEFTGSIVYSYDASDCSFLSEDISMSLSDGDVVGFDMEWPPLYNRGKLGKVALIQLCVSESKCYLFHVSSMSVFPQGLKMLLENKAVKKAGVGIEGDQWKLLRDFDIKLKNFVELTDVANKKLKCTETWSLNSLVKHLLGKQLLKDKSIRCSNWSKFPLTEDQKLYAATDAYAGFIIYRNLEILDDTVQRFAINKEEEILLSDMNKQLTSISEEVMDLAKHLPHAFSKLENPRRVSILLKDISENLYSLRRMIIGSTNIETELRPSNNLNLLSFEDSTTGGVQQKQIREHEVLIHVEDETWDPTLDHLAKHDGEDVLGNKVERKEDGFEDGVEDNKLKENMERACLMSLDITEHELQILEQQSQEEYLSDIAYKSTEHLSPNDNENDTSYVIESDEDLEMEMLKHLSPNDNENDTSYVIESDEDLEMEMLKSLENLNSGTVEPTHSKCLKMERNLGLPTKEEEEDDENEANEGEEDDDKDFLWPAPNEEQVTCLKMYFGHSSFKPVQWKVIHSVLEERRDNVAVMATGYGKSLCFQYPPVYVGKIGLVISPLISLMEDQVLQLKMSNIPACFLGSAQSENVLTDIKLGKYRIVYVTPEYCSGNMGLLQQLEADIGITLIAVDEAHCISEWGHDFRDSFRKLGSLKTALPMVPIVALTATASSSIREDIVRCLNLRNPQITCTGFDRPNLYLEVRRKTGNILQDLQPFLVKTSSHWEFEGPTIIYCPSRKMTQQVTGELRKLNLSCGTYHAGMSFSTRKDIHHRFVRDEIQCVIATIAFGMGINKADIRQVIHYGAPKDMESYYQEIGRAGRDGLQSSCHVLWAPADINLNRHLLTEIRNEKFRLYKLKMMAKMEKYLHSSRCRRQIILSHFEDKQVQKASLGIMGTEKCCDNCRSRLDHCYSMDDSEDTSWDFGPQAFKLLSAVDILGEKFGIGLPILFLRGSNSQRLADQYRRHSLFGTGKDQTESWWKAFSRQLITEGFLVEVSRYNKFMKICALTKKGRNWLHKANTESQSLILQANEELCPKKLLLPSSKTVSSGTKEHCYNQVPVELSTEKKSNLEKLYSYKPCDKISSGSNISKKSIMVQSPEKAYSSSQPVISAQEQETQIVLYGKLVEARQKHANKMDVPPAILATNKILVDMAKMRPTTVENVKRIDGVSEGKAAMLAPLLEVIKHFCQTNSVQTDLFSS
Structure (SMILES),IC50 [1],IC50 [2]
"C=CC(=O)Nc1ccccc1-c1c(CC)nc2n(CC(=O)Nc3ccc(F)c(F)c3)c3cc(OC)ccc3n2c1=O [Example 17, N-(2-(10-(2-((3,4-Difluorophenyl)amino)-2-oxoethyl)-2-ethyl-8-methoxy-4-oxo-4,10-dihydrobenzo[4,5]imidazo[1,2-a]pyrimidin-3-yl)phenyl)acrylamide]",0.1 to 0.5 µM,0.1 to 0.5 µM
"C=CC(=O)Nc1ccccc1-c1c(CC)nc2n(CC(=O)Nc3ccc(F)cc3)c3cc(C)c(C)cc3n2c1=O [Example 18, N-(2-(2-Ethyl-10-(2-((4-fluorophenyl)amino)-2-oxoethyl)-7,8-dimethyl-4-oxo-4,10-dihydrobenzo[4,5]imidazo[1,2-a]pyrimidin-3-yl)phenyl)acrylamide]",1 to 5 µM,5 to 20 µM
"C=CC(=O)Nc1ccccc1-c1c(CC)nc2n(CC(=O)Nc3ccc(C(F)(F)F)cc3)c3c(OC)cccc3n2c1=O [Example 19, N-(2-(2-Ethyl-9-methoxy-4-oxo-10-(2-oxo-2-((4-(trifluoromethyl)phenyl)amino)ethyl)-4,10-dihydrobenzo[4,5]imidazo[1,2-a]pyrimidin-3-yl)phenyl)acrylamide]",< 0.1 µM,< 0.1 µM
"C=CC(=O)Nc1ccccc1-c1c(CC)nc2n(CC(=O)Nc3ccc(C(F)(F)F)cc3)c3ncccc3n2c1=O [Example 20, N-(2-(8-Ethyl-6-oxo-10-(2-oxo-2-((4-(trifluoromethyl)phenyl)amino)ethyl)-6,10-dihydropyrido[2′,3′: 4,5]imidazo[1,2-a]pyrimidin-7-yl)phenyl)acrylamide]",0.1 to 0.5 µM,0.1 to 0.5 µM
"C=CS(=O)(=O)Nc1ccccc1-c1c(CC)nc2n(CC(=O)Nc3ccc(C(F)(F)F)cc3)c3ccccc3n2c1=O [Example 21, 2-(2-Ethyl-4-oxo-3-(2-(vinylsulfonamido)phenyl)benzo[4,5]imidazo[1,2-a]pyrimidin-10(4H)-yl)-N-(4-(trifluoromethyl)phenyl)acetamide]",< 0.1 µM,< 0.1 µM
"C=CC(=O)Nc1ccccc1-c1c(CC)nc2n(CC(=O)Nc3ccc(C(F)(F)F)cc3)c3c(n2c1=O)CCCC3 [Example 22, N-(2-(2-ethyl-4-oxo-10-(2-oxo-2-((4-(trifluoromethyl)phenyl)amino)ethyl)-4,6,7,8,9,10-hexahydrobenzo[4,5]imidazo[1,2-a]pyrimidin-3-yl)phenyl)acrylamide]",< 0.1 µM,< 0.1 µM
"C=CS(=O)(=O)Nc1ccccc1-c1c(CC)nc2n(CC(=O)Nc3ccc(C(F)(F)F)cc3)c3c(n2c1=O)CCCC3 [Example 23, 2-(2-Ethyl-4-oxo-3-(2-(vinylsulfonamido)phenyl)-6,7,8,9-tetrahydrobenzo[4,5]imidazo[1,2-a]pyrimidin-10(4H)-yl)-N-(4-(trifluoromethyl)phenyl)acetamide]",< 0.1 µM,< 0.1 µM
"C=CS(=O)(=O)Nc1ccccc1-c1c(CC)c(C#N)c2n(CC(=O)Nc3ccc(C(F)(F)F)cc3)c3ccccc3n2c1=O [Example 24, 2-(4-Cyano-3-ethyl-1-oxo-2-(2-(vinylsulfonamido)phenyl)benzo[4,5]imidazo[1,2-a]pyridin-5(1H)-yl)-N-(4-(trifluoromethyl)phenyl)acetamide]",0.1 to 0.5 µM,0.1 to 0.5 µM
"C=CC(=O)Nc1ccccc1-c1c(CC)c(C#N)c2n(CC(=O)Nc3ccc(C(F)(F)F)cc3)c3ccccc3n2c1=O [Example 25, N-(2-(4-Cyano-3-ethyl-1-oxo-5-(2-oxo-2-((4-(trifluoromethyl)phenyl)amino)ethyl)-1,5-dihydrobenzo[4,5]imidazo[1,2-a]pyridin-2-yl)phenyl)acrylamide]",0.1 to 0.5 µM,0.1 to 0.5 µM
"C=CC(=O)Nc1ccccc1-c1c(CC)cc2n(CC(=O)Nc3ccc(C(F)(F)F)cc3)c3ccccc3n2c1=O [Example 26, N-(2-(3-Ethyl-1-oxo-5-(2-oxo-2-((4-(trifluoromethyl)phenyl)amino)ethyl)-1,5-dihydrobenzo[4,5]imidazo[1,2-a]pyridin-2-yl)phenyl)acrylamide]",0.1 to 0.5 µM,< 0.1 µM
